Common to all, as to assay type: cell-based
One assay deals with T1, CFTR-G1349D (Homo sapiens, UniProt P13569, G1349D).
T1 construct: expressed in transfected cells
Briefly: YFP-halide influx assay for the CFTR-G1349D. From the text: (§1) The YFP halide influx assay measured the functionality of the cystic fibrosis Transmembrane Conductance regulator (CFTR) channels. The assay was used to evaluate the capacity of compounds to increase the channel opening of existing mutant CFTR channels in the membrane. It makes use of the observation that the yellow fluorescent protein (YFP) variant YFP H148Q, I152L, F47L has its fluorescence substantially quenched by halide ions like Cl^− and I^− (Galietta, L. J. V., Haggie, P. M., Verkman, A. S., 2001. Green fluorescent protein-based halide indicators with improved chloride and iodide affinities. FEBS Lett. 499, 220-224. doi:10.1016/S0014-5793(01)02561-3).
(§2) For this purpose, HEK293-cells were seeded in 96 well plates. During seeding, the cells were reverse-transfected with plasmid vectors that direct the expression of the CFTR G551D mutant and of the YFP reporter. Cells were incubated at 37° C., 5% CO2 for 24 hours so as to allow for sufficient expression of the CFTR protein.
(§3) The I^−-induced quenching of fluorescence was recorded immediately after injection of I^− for 7 seconds. The capacity of a compound to increase the channel opening was directly correlated with the decrease in fluorescence, and was expressed as (1−(fluorescence after 7 seconds (F)/fluorescence before injection (F0))) and an EC50 was derived from a (1−F/F0) vs compound concentration plot.
(§4) Similar YHA assays were developed for other channel gating defective or channel conductance defective CFTR mutants to determine effect of compound on channel activity. Examples of mutants are G178R, G1349D, S549N, R117H, R334W. This assay is also used for additional class I CFTR mutants, including G542X, W1282X; class II mutants including N1303K, and for class III mutants including S1251N; or wild-type CFTR.

The target of the next assay is T2, CFTR-R117H (Homo sapiens, UniProt P13569, R117H).
T2 construct: expressed in transfected cells
As to the kind of experiment: YFP-halide influx assay for the CFTR-R117H.
Source text: as §1, §2, §3, §4

The next assay concerns the target T3, CFTR G551D mutant (Homo sapiens, UniProt P13569, G551D).
T3 construct: expressed in transfected cells; host or cells: HEK293 cells, reverse transfection with plasmids
Briefly: YFP-halide influx assay for the CFTR-G551D mutation (HEK293 cells). The following applies: forskolin 10.67 μM. The gist of the method:
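Channel opening read as I⁻-driven quenching of a YFP H148Q/I152L/F47L reporter over 7 s post-injection, expressed as 1−F/F0 and fitted against concentration for EC50. Cells were HEK293 co-transfected at seeding with G551D CFTR plus reporter, then grown 24 h at 37 °C, 5% CO2.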

The target in another assay is T4, CFTR ΔF508 mutant (Homo sapiens, UniProt P13569, DEL508-508).
T4 construct: expressed in transfected cells; host or cells: CFBE41o- cells, adenoviral transduction
Briefly: YFP-halide influx assay for the CFTR-ΔF508 mutation (CFBE41o- cells). The following applies: forskolin 10.67 μM; for EC50: from (1−F/F0) vs concentration plot. The gist of the method:
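EC50 derived from plotting 1−F/F0 (fluorescence 36 s after iodide injection over pre-injection value) against compound concentration. Cells: CFBE41o- transduced with ΔF508-CFTR and YFP quench reporter, corrected 24 h at 27° C or by a CFTR modulator at 37° C.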

A further assay has as its target T5, CFTR-G178R (Homo sapiens, UniProt P13569, G178R).
T5 construct: expressed in transfected cells
Briefly: YFP-halide influx assay for the CFTR-G178R.
Source text: as §1, §2, §3, §4

The target in the next assay is T6, CFTR-S549N (Homo sapiens, UniProt P13569, S549N).
T6 construct: expressed in transfected cells
As to the kind of experiment: YFP-halide influx assay for the CFTR-S549N. Set-up: % Activation: concentration or dose not given beside the values.
Source text: as §1, §2, §3, §4

T6 sequence (P13569 whole entry S549N): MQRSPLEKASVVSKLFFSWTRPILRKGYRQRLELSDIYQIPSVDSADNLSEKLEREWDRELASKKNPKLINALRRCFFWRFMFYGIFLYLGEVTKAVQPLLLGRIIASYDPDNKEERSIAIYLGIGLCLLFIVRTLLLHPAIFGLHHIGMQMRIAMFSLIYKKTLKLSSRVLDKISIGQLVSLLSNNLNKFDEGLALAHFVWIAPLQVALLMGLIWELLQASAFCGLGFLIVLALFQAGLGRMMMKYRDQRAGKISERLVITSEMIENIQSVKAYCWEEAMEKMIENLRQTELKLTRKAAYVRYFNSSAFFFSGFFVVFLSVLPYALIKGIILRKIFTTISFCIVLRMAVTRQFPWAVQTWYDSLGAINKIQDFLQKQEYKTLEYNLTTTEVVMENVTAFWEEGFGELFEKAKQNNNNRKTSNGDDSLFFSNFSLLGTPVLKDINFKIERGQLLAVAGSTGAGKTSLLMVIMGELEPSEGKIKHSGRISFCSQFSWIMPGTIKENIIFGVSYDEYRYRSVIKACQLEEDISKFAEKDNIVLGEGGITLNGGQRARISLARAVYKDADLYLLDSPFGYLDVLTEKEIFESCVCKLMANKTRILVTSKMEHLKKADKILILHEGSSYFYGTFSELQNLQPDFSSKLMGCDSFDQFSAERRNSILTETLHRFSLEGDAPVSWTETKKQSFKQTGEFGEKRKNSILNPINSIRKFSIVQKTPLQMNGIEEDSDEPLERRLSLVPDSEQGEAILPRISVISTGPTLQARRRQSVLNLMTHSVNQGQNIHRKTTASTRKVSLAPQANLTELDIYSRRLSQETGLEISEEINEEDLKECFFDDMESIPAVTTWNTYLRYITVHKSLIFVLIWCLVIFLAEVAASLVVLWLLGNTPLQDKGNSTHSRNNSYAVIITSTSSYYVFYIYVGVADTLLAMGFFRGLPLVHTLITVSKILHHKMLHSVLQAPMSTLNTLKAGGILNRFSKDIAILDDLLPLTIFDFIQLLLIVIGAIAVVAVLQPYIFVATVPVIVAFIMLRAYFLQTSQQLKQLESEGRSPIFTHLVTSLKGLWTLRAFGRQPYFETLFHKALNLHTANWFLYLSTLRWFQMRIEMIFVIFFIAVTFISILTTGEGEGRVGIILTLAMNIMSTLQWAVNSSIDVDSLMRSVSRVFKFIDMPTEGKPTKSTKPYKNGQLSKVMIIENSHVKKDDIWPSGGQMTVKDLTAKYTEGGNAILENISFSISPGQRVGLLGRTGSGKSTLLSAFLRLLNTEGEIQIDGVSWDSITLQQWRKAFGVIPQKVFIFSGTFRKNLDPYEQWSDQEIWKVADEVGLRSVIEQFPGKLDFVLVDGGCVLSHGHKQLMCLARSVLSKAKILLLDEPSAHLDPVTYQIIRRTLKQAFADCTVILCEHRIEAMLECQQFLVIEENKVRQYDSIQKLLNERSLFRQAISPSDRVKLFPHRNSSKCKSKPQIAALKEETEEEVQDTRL
T5 sequence (P13569 whole entry G178R): as the sequence (P13569 whole entry S549N) above, with G178R, N549S counted along it
T4 sequence (P13569 with tags, fused parts or gaps DEL508-508): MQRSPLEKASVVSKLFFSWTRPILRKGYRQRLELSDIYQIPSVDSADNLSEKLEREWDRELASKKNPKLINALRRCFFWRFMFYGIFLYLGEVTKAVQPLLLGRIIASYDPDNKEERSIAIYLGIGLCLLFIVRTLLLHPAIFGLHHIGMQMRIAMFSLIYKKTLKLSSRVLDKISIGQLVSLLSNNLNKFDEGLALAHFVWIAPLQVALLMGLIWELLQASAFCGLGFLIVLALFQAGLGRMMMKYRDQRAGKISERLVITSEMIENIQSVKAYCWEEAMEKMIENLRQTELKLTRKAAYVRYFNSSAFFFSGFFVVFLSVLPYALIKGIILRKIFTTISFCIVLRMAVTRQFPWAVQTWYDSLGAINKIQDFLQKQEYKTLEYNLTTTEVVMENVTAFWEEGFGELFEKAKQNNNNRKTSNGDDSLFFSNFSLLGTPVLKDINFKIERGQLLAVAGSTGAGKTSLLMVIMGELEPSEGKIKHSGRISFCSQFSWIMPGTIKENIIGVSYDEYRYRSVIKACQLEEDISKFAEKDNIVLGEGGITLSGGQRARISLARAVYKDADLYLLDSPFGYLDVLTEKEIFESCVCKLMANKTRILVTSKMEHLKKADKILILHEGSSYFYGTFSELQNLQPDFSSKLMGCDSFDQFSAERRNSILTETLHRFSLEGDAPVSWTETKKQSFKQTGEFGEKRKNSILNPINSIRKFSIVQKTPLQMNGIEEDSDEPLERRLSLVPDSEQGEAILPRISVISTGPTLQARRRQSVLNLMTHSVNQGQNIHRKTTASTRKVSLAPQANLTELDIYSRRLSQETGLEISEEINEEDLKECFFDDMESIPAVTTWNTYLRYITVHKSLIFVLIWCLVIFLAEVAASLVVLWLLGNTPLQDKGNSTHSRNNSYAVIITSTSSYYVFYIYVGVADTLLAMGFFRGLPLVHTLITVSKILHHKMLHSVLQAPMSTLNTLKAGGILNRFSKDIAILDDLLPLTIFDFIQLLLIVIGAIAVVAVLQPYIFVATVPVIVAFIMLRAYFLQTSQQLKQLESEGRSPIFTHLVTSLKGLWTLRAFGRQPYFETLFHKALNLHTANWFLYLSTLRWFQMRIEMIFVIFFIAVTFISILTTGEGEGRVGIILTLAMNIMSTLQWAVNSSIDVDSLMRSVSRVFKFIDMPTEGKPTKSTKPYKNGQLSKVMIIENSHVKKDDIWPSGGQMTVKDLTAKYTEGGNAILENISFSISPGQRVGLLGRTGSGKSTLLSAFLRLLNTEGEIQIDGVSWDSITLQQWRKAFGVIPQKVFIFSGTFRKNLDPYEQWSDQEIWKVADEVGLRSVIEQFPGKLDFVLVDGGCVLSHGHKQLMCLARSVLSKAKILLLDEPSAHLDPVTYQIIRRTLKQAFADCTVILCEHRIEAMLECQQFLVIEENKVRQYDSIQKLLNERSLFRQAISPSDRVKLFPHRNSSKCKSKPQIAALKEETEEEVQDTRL
T1 sequence (P13569 whole entry G1349D): as the sequence (P13569 whole entry S549N) above, with N549S, G1349D counted along it
T2 sequence (P13569 whole entry R117H): as the sequence (P13569 whole entry S549N) above, with R117H, N549S counted along it
T3 sequence (P13569 whole entry G551D): as the sequence (P13569 whole entry S549N) above, with N549S, G551D counted along it

Broadly, the EC50 is the concentration needed to bring the measured effect to its halfway point. For the molecule `Nc1cc(S(=O)(=O)c2ccc(OC(F)(F)F)cc2)cnc1C(=O)N[C@@H]1COCC[C@@H]1O` (racemic) [Compound 33, rac-3-amino-N-[(3R,4S)-4-hydroxytetrahydro-2H-pyran-3-yl]-5-{[4-(trifluoromethoxy)phenyl]sulfonyl}pyridine-2-carboxamide], the “% Activation” value on CFTR-G1349D was 92.9%; on CFTR-R117H it was 87.1%; at CFTR G551D mutant, 62.3%; on CFTR ΔF508 mutant it was 98.6%; at CFTR-G178R it was 81.8%; at CFTR-S549N, 82.2%. Further, the EC50 at CFTR-G1349D was determined as 543 nM; at CFTR-R117H, 628 nM; at CFTR G551D mutant it was 1390 nM; on CFTR ΔF508 mutant it was 42.8 nM; on CFTR-G178R, 514 nM; on CFTR-S549N, 735 nM.

As for `Nc1cc(S(=O)(=O)c2ccccc2OC(F)(F)F)cnc1C(=O)N1CC(F)(F)C1` [Compound 78, (3-amino-5-{[2-(trifluoromethoxy)phenyl]sulfonyl}pyridin-2-yl)(3,3-difluoroazetidin-1-yl)methanone], the “% Activation” value stood at 85.36% at CFTR-G1349D; 89.74% on CFTR-R117H; 55.9% at CFTR G551D mutant; 123.0% on CFTR ΔF508 mutant; 73% at CFTR-G178R; 80.37% at CFTR-S549N. Besides, the EC50 at CFTR-G1349D stood at 52.3 nM; at CFTR-R117H, 59.5 nM; at CFTR G551D mutant, 609 nM; on CFTR ΔF508 mutant, 2.2 nM; at CFTR-G178R it was 58.1 nM; on CFTR-S549N, 116 nM.

Consider `CC(C)NC(=O)CNC(=O)c1ncc(S(=O)(=O)c2ccc(OC(F)(F)F)cc2)cc1N` [Compound 57, 3-amino-N-[2-oxo-2-(propan-2-ylamino)ethyl]-5-{[4-(trifluoromethoxy)phenyl]sulfonyl}pyridine-2-carboxamide], for which the “% Activation” value came out at 59.6% on CFTR-G1349D, 72.8% on CFTR-R117H, 51.8% at CFTR G551D mutant and 93.1% at CFTR ΔF508 mutant. For the same molecule, the EC50 on CFTR-G1349D was 457 nM; at CFTR-R117H, 356 nM; on CFTR G551D mutant, 385 nM; at CFTR ΔF508 mutant, 7.1 nM.

`Nc1cc(S(=O)(=O)c2ccc(C(F)(F)F)cc2)cnc1C(=O)N1CC(OCC(F)F)C1` [Compound 231, (3-amino-5-{[4-(trifluoromethyl)phenyl]sulfonyl}pyridin-2-yl)[3-(2,2-difluoroethoxy)azetidin-1-yl]methanone]: the “% Activation” value came to 83.9% on CFTR-G1349D; 91.3% on CFTR-R117H; 59.2% on CFTR G551D mutant; 103.3% at CFTR ΔF508 mutant; 98.4% at CFTR-G178R; 88.2% on CFTR-S549N. In addition, the EC50 at CFTR-G1349D came out at 129 nM; at CFTR-R117H it was 442 nM; at CFTR G551D mutant, 450 nM; at CFTR ΔF508 mutant, 52.3 nM; on CFTR-G178R, 305 nM; on CFTR-S549N, 256 nM.

Consider `CC1(O)CN(C(=O)c2ncc(S(=O)(=O)c3ccc(C(F)(F)F)cc3)cc2N)C1` [Compound 91, (3-amino-5-{[4-(trifluoromethyl)phenyl]sulfonyl}pyridin-2-yl) (3-hydroxy-3-methylazetidin-1-yl)methanone], for which the “% Activation” value on CFTR-G1349D is listed as 76.6%; at CFTR-R117H, 89.6%; on CFTR G551D mutant it was 56.1%; at CFTR ΔF508 mutant, 97.2%. Also, the EC50 on CFTR-G1349D was found to be 738 nM; on CFTR-R117H it was 326 nM; on CFTR G551D mutant it was 810 nM; on CFTR ΔF508 mutant it was 11.5 nM.

`COCC1(C)CN(C(=O)c2ncc(S(=O)(=O)c3ccc(OC(F)(F)F)cc3)cc2N)C1` [Compound 154, (3-amino-5-{[4-(trifluoromethoxy)phenyl]sulfonyl}pyridin-2-yl)[3-(methoxymethyl)-3-methylazetidin-1-yl]methanone]: the “% Activation” value on CFTR-G1349D was determined as 97.6%; on CFTR-R117H, 107.0%; at CFTR G551D mutant it was 81.9%; at CFTR ΔF508 mutant it was 98.1%. The EC50 at CFTR-G1349D was 637 nM; at CFTR-R117H, 499 nM; at CFTR G551D mutant, 881 nM; at CFTR ΔF508 mutant, 66.3 nM.

Take `Nc1cc(S(=O)(=O)c2ccc(OC(F)(F)F)cc2)cnc1C(=O)N1CC(OCC(F)F)C1` [Compound 119, (3-amino-5-{[4-(trifluoromethoxy)phenyl]sulfonyl}pyridin-2-yl)[3-(2,2-difluoroethoxy)azetidin-1-yl]methanone]: the “% Activation” value on CFTR-G1349D amounted to 84.8%; at CFTR-R117H, 89.9%; on CFTR G551D mutant, 64.6%; on CFTR ΔF508 mutant it was 101.0%. Further, the EC50 at CFTR-G1349D was determined as 320 nM; on CFTR-R117H, 307 nM; on CFTR G551D mutant, 554 nM; on CFTR ΔF508 mutant it was 34.1 nM.

As for `Nc1cc(S(=O)(=O)c2ccc(C(F)(F)F)cc2)cnc1C(=O)NC[C@@H](O)C(F)(F)F` [Compound 63, 3-amino-N-[(2R)-3,3,3-trifluoro-2-hydroxypropyl]-5-{[4-(trifluoromethyl)phenyl]sulfonyl}pyridine-2-carboxamide], the “% Activation” value is listed as 82.8% on CFTR-G1349D, 89.3% on CFTR-R117H, 60.8% at CFTR G551D mutant and 102.0% at CFTR ΔF508 mutant. Moreover, the EC50 stood at 256 nM at CFTR-G1349D, 152 nM at CFTR-R117H, 262 nM on CFTR G551D mutant and 3.1 nM at CFTR ΔF508 mutant.

For the molecule `Nc1cc(S(=O)(=O)c2ccc(C(F)(F)F)cc2)cnc1C(=O)N1CC(F)(F)C1` [Compound 103, (3-amino-5-{[4-(trifluoromethyl)phenyl]sulfonyl}pyridin-2-yl)(3,3-difluoroazetidin-1-yl)methanone], the “% Activation” value at CFTR-G1349D is given as 67.7%; on CFTR-R117H it was 87.8%; on CFTR G551D mutant, 52.6%; at CFTR ΔF508 mutant, 110.0%. Besides, the EC50 on CFTR-G1349D was determined as 448 nM; on CFTR-R117H, 351 nM; at CFTR G551D mutant, 368 nM; at CFTR ΔF508 mutant, 26.2 nM.

Consider `CCOCC1(CNC(=O)c2ncc(S(=O)(=O)c3ccc(OC(F)(F)F)cc3)cc2N)CCC1` [Compound 118, 3-amino-N-{[1-(ethoxymethyl)cyclobutyl]methyl}-5-{[4-(trifluoromethoxy)phenyl]sulfonyl}pyridine-2-carboxamide], for which the “% Activation” value at CFTR-G1349D is on record as 99.5%; on CFTR-R117H, 90.7%; on CFTR G551D mutant, 49.5%; on CFTR ΔF508 mutant, 93.2%. Also, the EC50 amounted to 770 nM on CFTR-G1349D, 621 nM at CFTR-R117H, 419 nM at CFTR G551D mutant and 208 nM at CFTR ΔF508 mutant.

As to `CCC1(F)CN(C(=O)c2ncc(S(=O)(=O)c3ccc(OC(F)(F)F)cc3)cc2N)C1` [Compound 130, (3-amino-5-{[4-(trifluoromethoxy)phenyl]sulfonyl}pyridin-2-yl)(3-ethyl-3-fluoroazetidin-1-yl)methanone], the “% Activation” value on CFTR-G1349D came to 55.4%; at CFTR-R117H, 77.6%; at CFTR G551D mutant, 78.3%; at CFTR ΔF508 mutant, 93.9%. Besides, the EC50 at CFTR-G1349D came to 703 nM; at CFTR-R117H, 580 nM; at CFTR G551D mutant, 674 nM; at CFTR ΔF508 mutant, 102 nM.

Source of the values: patent US10047051B2, “Substituted pyridines and method of use” (AbbVie S.á{acute over (.)}r.l., priority 2015, dated 2018).
